Reference: patent US20240381872A1, “SUBSTITUTED 2,3-DIHYDRO[1,3]THIAZOLO[4,5-B]PYRIDINES, SALTS THEREOF AND THEIR USE AS HERBICIDALLY ACTIVE SUBSTANCES” (BAYER AKTIENGESELLSCHAFT, priority 2021, published 2024)

Legend:
Type in all cases: in vivo
Glycine max (GLXMA) = assay: Pre-emergence effects on crop plants, section D (Table D4); conditions: visual grading after ca. 3 weeks
Method in brief: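 Pre-emergence soil-surface spray, 320 g/ha or below, 600 l water/ha + 0.5% additive; WP/EC formulations; sandy loam; greenhouse; visual % damage vs untreated at ~3 wk.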

[1] = test system: Triticum aestivum (TRZAS); assay: Post-emergence effects on crop plants, section F (Table F2); conditions: for percent crop plant damage (wheat, post-emergence) at 80 g/ha / percent crop plant damage (wheat, post-emergence) at 320 g/ha: Triticum aestivum, 504 h, read-out: post-emergence activity against TRZAS in %; for percent crop plant damage (wheat, post-emergence) at 80 g/ha / post-emergence activity against TRZAS in %: application rate 80 g/ha; for percent crop plant damage (wheat, post-emergence) at 320 g/ha: application rate 320 g/ha; for post-emergence activity against TRZAS in %: crop plant damage
Method in brief: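 Crop seeds were sown in sandy loam in pots and greenhouse-grown; at the single-leaf stage, 2 to 3 weeks after sowing, plants were sprayed with WP or EC formulations plus 0.5% additive at 600 l water/ha, 320 g/ha or below. Damage was scored visually about 3 weeks later versus untreated controls (0–100%).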

[2] = test system: Amaranthus retroflexus (AMARE); assay: Herbicidal pre-emergence action, section C (Table C11); conditions: visual grading after ca. 3 weeks; for pest or weed control at 320 g/ha / pest or weed control at 80 g/ha: Amaranthus retroflexus, pre-emergence, 504 h, read-out: pre-emergence activity against AMARE in %
Method in brief: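 Seeds sown in sandy loam and covered with soil; compounds formulated as WP or EC were sprayed onto the covering soil as aqueous suspension/emulsion with 0.5% additive at 600 l water/ha. Pots kept in greenhouse under optimum conditions; damage graded visually after ca. 3 weeks versus untreated controls (0–100%).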

[3] = test system: Amaranthus retroflexus (AMARE); assay: Herbicidal post-emergence action, section E (Table E3); conditions: application rate 320 g/ha, assessed visually after ca. 3 weeks; for pest or weed control at 320 g/ha: Amaranthus retroflexus, post-emergence, 504 h, read-out: post-emergence activity against AMARE in %
Description: Seeds of mono- and dicotyledonous weed plants and crop plants were sown, in plastic or organic planting pots, in sandy loam, covered with soil and grown in a greenhouse under controlled growth conditions. 2 to 3 weeks after sowing, the test plants were sprayed in the single-leaf stage. The compounds according to the invention, formulated in form of wettable powders (WP) or as emulsifiable concentrates (EC), were sprayed onto the green plant parts as aqueous suspension or emulsion, with the addition of 0.5% of an additive, at an application rate of 600 l of water/ha (converted). The test plants were placed in the greenhouse for ca. 3 weeks under optimum growth conditions, and then the effect of the preparations was assessed visually in comparison with untreated controls (herbicidal effect in percent (%): 100% effect=plants have died off, 0% effect=as control plants).

[4] = test system: Echinochloa crus-galli (ECHCG); assay: Herbicidal post-emergence action, section B (Table B3); conditions: rated visually after about 3 weeks; for pest or weed control at 1280 g/ha: Echinochloa crus-galli, 504 h, read-out: post-emergence activity against ECHCG in %
Method in brief: (§1)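 Post-emergence greenhouse test. One-leaf stage; WP or EC plus 0.5% additive; 600 liters per hectare water volume; visual % rating at ~3 weeks relative to untreated plants.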

[5] = test system: Digitaria sanguinalis (DIGSA); assay: Herbicidal pre-emergence action, section A (Table A12); conditions: for pest or weed control at 320 g/ha / pre-emergence activity against DIGSA in %: application rate 320 g/ha
Method in brief: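 WP/EC formulations, aqueous, 0.5% additive, 600 l/ha → soil surface over seeds in sandy loam → greenhouse, optimum growth → visual % damage vs untreated at ca. 3 weeks.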

Stellaria media (STEME) = assay: Herbicidal post-emergence action, section B (Table B9); conditions: visual rating about 3 weeks after treatment vs untreated controls; for pest or weed control at 320 g/ha / pest or weed control at 1280 g/ha: Stellaria media, post-emergence, 504 h, read-out: post-emergence activity against STEME in %
Method in brief: as §1

[6] = test system: Digitaria sanguinalis (DIGSA); assay: Herbicidal post-emergence action, section B (Table B12); conditions: visual rating about 3 weeks after treatment vs untreated controls; for pest or weed control at 1280 g/ha / post-emergence activity against DIGSA in %: application rate 1280 g/ha
Method in brief: as §1

[7] = Digitaria sanguinalis, 504 h, read-out: pre-emergence activity against DIGSA in %
[8] = Digitaria sanguinalis, post-emergence, 504 h, read-out: post-emergence activity against DIGSA in %

`Fc1ccccc1-c1nc2c(cc1Br)SCN2` [Example I-001, 6-bromo-5-(2-fluorophenyl)-2,3-dihydro[1,3]thiazolo[4,5-b]pyridine] was tested, and the “pre-emergence activity against GLXMA in % (crop plant damage)” value (Glycine max (GLXMA); application rate 320 g/ha) was 0%, the percent crop plant damage (wheat, post-emergence) at 80 g/ha [1] was 0% and the pest or weed control at 320 g/ha ([2]; application rate 320 g/ha) was 90%. For the same compound, the pest or weed control at 320 g/ha [3] was 80%.

In the case of `Cc1cc2c(nc1-c1cccc(F)c1F)NCS2` [Example I-029, 5-(2,3-difluorophenyl)-6-methyl-2,3-dihydro[1,3]thiazolo[4,5-b]pyridine], the “pre-emergence activity against GLXMA in % (crop plant damage)” value (Glycine max (GLXMA); application rate 80 g/ha) is reported as 10%, the percent crop plant damage (wheat, post-emergence) at 80 g/ha [1] is reported as 10% and the pest or weed control at 1280 g/ha ([4]; application rate 1280 g/ha) is reported as 90%. For the same compound, the pest or weed control at 80 g/ha ([2]; application rate 80 g/ha) was 80%, the pest or weed control at 320 g/ha [5, 7] was 100% and the pest or weed control at 320 g/ha [3] was 80%. It also gave a pest or weed control at 320 g/ha (Stellaria media (STEME); application rate 320 g/ha) of 90%.

With `Cc1cc2c(nc1-c1ccccc1Cl)NCS2` [Example I-049, 5-(2-chlorophenyl)-6-methyl-2,3-dihydro[1,3]thiazolo[4,5-b]pyridine] the “pre-emergence activity against GLXMA in % (crop plant damage)” value (Glycine max (GLXMA); application rate 320 g/ha) was 0%, the percent crop plant damage (wheat, post-emergence) at 80 g/ha [1] was 10% and the pest or weed control at 80 g/ha ([2]; application rate 80 g/ha) was 80%. For the same compound, the pest or weed control at 320 g/ha [3] was 90%.

In the case of `CC(=O)N1CSc2cc(Br)c(-c3ccccc3Cl)nc21` [Example I-055, 1-[6-bromo-5-(2-chlorophenyl)[1,3]thiazolo[4,5-b]pyridin-3(2H)-yl]ethanone], the “pre-emergence activity against GLXMA in % (crop plant damage)” value (Glycine max (GLXMA); application rate 320 g/ha) is reported as 20%, the percent crop plant damage (wheat, post-emergence) at 320 g/ha [1] is reported as 0% and the pest or weed control at 1280 g/ha ([4]; application rate 1280 g/ha) is reported as 90%. It also gave a pest or weed control at 80 g/ha ([2]; application rate 80 g/ha) of 90%, a pest or weed control at 320 g/ha [5, 7] of 100% and a pest or weed control at 1280 g/ha [6, 8] of 90%. For the same compound, the pest or weed control at 320 g/ha [3] was 80% and the pest or weed control at 1280 g/ha (Stellaria media (STEME); application rate 1280 g/ha) was 90%.

In the case of `CCS(=O)(=O)N1CSc2cc(C)c(-c3ccccc3F)nc21` [Example I-060, 3-(ethylsulfonyl)-5-(2-fluorophenyl)-6-methyl-2,3-dihydro[1,3]thiazolo[4,5-b]pyridine], the “pre-emergence activity against GLXMA in % (crop plant damage)” value (Glycine max (GLXMA); application rate 80 g/ha) is reported as 0%, the percent crop plant damage (wheat, post-emergence) at 80 g/ha [1] is reported as 0% and the pest or weed control at 1280 g/ha ([4]; application rate 1280 g/ha) is reported as 90%. The pest or weed control at 320 g/ha ([2]; application rate 320 g/ha) was 90%, the pest or weed control at 320 g/ha [5, 7] was 100% and the pest or weed control at 320 g/ha ([6]; Digitaria sanguinalis, post-emergence, 504 h, application rate 320 g/ha, read-out: post-emergence activity against DIGSA in %) was 90%. For the same compound, the pest or weed control at 320 g/ha [3] was 90% and the pest or weed control at 320 g/ha (Stellaria media (STEME); application rate 320 g/ha) was 90%.

In the case of `CC(C)C(=O)N1C[S+]([O-])c2cc(Br)c(-c3ccccc3)nc21` (stereo not shown) [Example I-067], the “pre-emergence activity against GLXMA in % (crop plant damage)” value (Glycine max (GLXMA); application rate 80 g/ha) is reported as 20%, the percent crop plant damage (wheat, post-emergence) at 320 g/ha [1] is reported as 0% and the pest or weed control at 80 g/ha ([2]; application rate 80 g/ha) is reported as 80%. For the same compound, the pest or weed control at 320 g/ha [3] was 80%.

With `CCOCCS(=O)(=O)N1C[S+]([O-])c2cc(C)c(-c3ccccc3F)nc21` (stereo not shown) [Example I-127] the “pre-emergence activity against GLXMA in % (crop plant damage)” value (Glycine max (GLXMA); application rate 80 g/ha) was 20%, the percent crop plant damage (wheat, post-emergence) at 80 g/ha [1] was 0% and the pest or weed control at 1280 g/ha ([4]; application rate 1280 g/ha) was 90%. It also gave a pest or weed control at 320 g/ha ([2]; application rate 320 g/ha) of 90%, a pest or weed control at 320 g/ha [5, 7] of 100% and a pest or weed control at 1280 g/ha [6, 8] of 90%. The pest or weed control at 320 g/ha [3] was 90% and the pest or weed control at 1280 g/ha (Stellaria media (STEME); application rate 1280 g/ha) was 90%.

`COCC1(C(=O)N2CSc3cc(C)c(-c4ccccc4F)nc32)CC(Cl)=NO1` (stereo not shown) [Example I-128] was tested, and the “post-emergence activity against ECHCG in %” value ([4]; application rate 320 g/ha) was 90%, the “pre-emergence activity against AMARE in %” value ([2]; application rate 320 g/ha) was 90% and the “pre-emergence activity against DIGSA in %” value [5] was 100%. The “post-emergence activity against DIGSA in %” value [6] was 90%, the “post-emergence activity against AMARE in %” value [3] was 90% and the “post-emergence activity against STEME in %” value (Stellaria media (STEME); application rate 320 g/ha) was 90%.

For `Cc1ccccc1-c1nc2c(cc1C)SCN2C(=O)C1(C)CC(Cl)=NO1` (stereo not shown) [Example I-137], the “post-emergence activity against TRZAS in %” value [1] was 0%, the “post-emergence activity against ECHCG in %” value ([4]; application rate 320 g/ha) was 90% and the “pre-emergence activity against AMARE in %” value ([2]; application rate 80 g/ha) was 90%. For the same compound, the “pre-emergence activity against DIGSA in %” value [5] was 100%, the “post-emergence activity against DIGSA in %” value [6] was 90% and the “post-emergence activity against AMARE in %” value [3] was 80%. The “post-emergence activity against STEME in %” value (Stellaria media (STEME); application rate 1280 g/ha) was 90%.

`CC1(C(=O)N2CSc3cc(Br)c(-c4ccccc4)nc32)CC(Cl)=NO1` (stereo not shown) [Example I-139] was tested, and the “post-emergence activity against TRZAS in %” value [1] was 0%, the “post-emergence activity against ECHCG in %” value ([4]; application rate 1280 g/ha) was 90% and the “pre-emergence activity against AMARE in %” value ([2]; application rate 80 g/ha) was 90%. The “pre-emergence activity against DIGSA in %” value [5] was 100%, the “post-emergence activity against DIGSA in %” value [6] was 90% and the “post-emergence activity against AMARE in %” value [3] was 90%. The “post-emergence activity against STEME in %” value (Stellaria media (STEME); application rate 1280 g/ha) was 90%.

For `CC1(C(=O)N2CSc3cc(Br)c(-c4ccccc4Cl)nc32)CC(Cl)=NO1` (stereo not shown) [Example I-141, [6-bromo-5-(2-chlorophenyl)[1,3]thiazolo[4,5-b]pyridin-3(2H)-yl](3-chloro-5-methyl-4,5-dihydro-1,2-oxazol-5-yl)methanone], the percent crop plant damage (wheat, post-emergence) at 320 g/ha [1] was 0%, the pest or weed control at 1280 g/ha ([4]; application rate 1280 g/ha) was 90% and the pest or weed control at 80 g/ha ([2]; application rate 80 g/ha) was 100%. It also gave a pest or weed control at 1280 g/ha ([5]; Digitaria sanguinalis, 504 h, application rate 1280 g/ha, read-out: pre-emergence activity against DIGSA in %) of 100%, a pest or weed control at 1280 g/ha [6, 8] of 90% and a pest or weed control at 320 g/ha [3] of 80%. For the same compound, the pest or weed control at 1280 g/ha (Stellaria media (STEME); application rate 1280 g/ha) was 90%.
